According to PubChem BioAssay AID2060890 (Molecular Pharmacology Branch, DTP, NCI, 2025):

Test system: LG0703-F948-PDC complex spheroid viability
Test: Anticancer human tumor LG0703-F948-PDC patient-derived lung adenocarcinoma cell line growth inhibition [RAS]
Conditions: for viability, T/C: stronger effect = lower value
Outline: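 Multi-cell-type spheroids: tumor cells plus HUVEC endothelial cells and mesenchymal stem cells. RAS-pathway inhibitors were combined with targeted agents, each dosed in half-log steps down from clinical Cmax, or from 10 microM when Cmax was unknown.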
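Further: spheroids exposed to agents for 7 days.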
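Wherever viability, T/C is given: 100% = DMSO vehicle wells.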

C=CC(=O)Nc1cc(Nc2nccc(-c3cn(C)c4ccccc34)n2)c(OC)cc1N(C)CCN(C)C
viability, T/C (compound 0.00316 µM): 90.6% [middle of 4 runs] | viability, T/C (compound 0.01 µM): 50.2% [middle of 4 runs] | viability, T/C (compound 0.0316 µM): 21.9% [middle of 4 runs] | viability, T/C (compound 0.1 µM): 16.2% [middle of 4 runs] | viability, T/C (compound 0.316 µM): 17.2% [middle of 4 runs] | viability, T/C (compound 1 µM): 12.8% [middle of 4 runs] | IC50 (curve of compound): 10.1 nM [middle of 4 runs]

CC(=O)OC12COC1CC(O)C1(C)C(=O)C(O)C3=C(C)C(OC(=O)C(O)C(NC(=O)OC(C)(C)C)c4ccccc4)CC(O)(C(OC(=O)c4ccccc4)C21)C3(C)C (centres undefined) + C#Cc1c(F)ccc2cc(O)cc(-c3ncc4c(N5CC6CCC(C5)N6)nc(OCC56CCCN5CC(F)C6)nc4c3F)c12
IC50 (curve of first compound, second compound 0.0316 µM): < 31.6 nM | IC50 (curve of first compound, second compound 0.1 µM): < 31.6 nM | IC50 (curve of first compound, second compound 0.316 µM): < 31.6 nM | IC50 (curve of first compound, second compound 1 µM): < 31.6 nM | IC50 (curve of first compound, second compound 3.16 µM): < 31.6 nM | IC50 (curve of first compound, second compound 10 µM): < 31.6 nM | viability, T/C (second compound 0.0316 µM, first compound 0.0316 µM): 28.1% | viability, T/C (second compound 0.0316 µM, first compound 0.1 µM): 22.9% | viability, T/C (second compound 0.0316 µM, first compound 0.316 µM): 23.7% | viability, T/C (second compound 0.0316 µM, first compound 1 µM): 27.4% | viability, T/C (second compound 0.0316 µM, first compound 3.16 µM): 33.1% | viability, T/C (second compound 0.0316 µM, first compound 10 µM): 27.8% | viability, T/C (second compound 0.1 µM, first compound 0.0316 µM): 23.5% | viability, T/C (second compound 0.1 µM, first compound 0.1 µM): 27.3% | viability, T/C (second compound 0.1 µM, first compound 0.316 µM): 24.9% | viability, T/C (second compound 0.1 µM, first compound 1 µM): 32% | viability, T/C (second compound 0.1 µM, first compound 3.16 µM): 32.9% | viability, T/C (second compound 0.1 µM, first compound 10 µM): 25.2% | viability, T/C (second compound 0.316 µM, first compound 0.0316 µM): 27.2% | viability, T/C (second compound 0.316 µM, first compound 0.1 µM): 22.6% | viability, T/C (second compound 0.316 µM, first compound 0.316 µM): 27.7% | viability, T/C (second compound 0.316 µM, first compound 1 µM): 26.2% | viability, T/C (second compound 0.316 µM, first compound 3.16 µM): 24.8% | viability, T/C (second compound 0.316 µM, first compound 10 µM): 22.9% | viability, T/C (second compound 1 µM, first compound 0.0316 µM): 25.5% | viability, T/C (second compound 1 µM, first compound 0.1 µM): 26.4% | viability, T/C (second compound 1 µM, first compound 0.316 µM): 24.6% | viability, T/C (second compound 1 µM, first compound 1 µM): 26.4% | viability, T/C (second compound 1 µM, first compound 3.16 µM): 22.7% | viability, T/C (second compound 1 µM, first compound 10 µM): 20.1% | viability, T/C (second compound 3.16 µM, first compound 0.0316 µM): 23.5% | viability, T/C (second compound 3.16 µM, first compound 0.1 µM): 22.8% | viability, T/C (second compound 3.16 µM, first compound 0.316 µM): 23% | viability, T/C (second compound 3.16 µM, first compound 1 µM): 18.9% | viability, T/C (second compound 3.16 µM, first compound 3.16 µM): 16.3% | viability, T/C (second compound 3.16 µM, first compound 10 µM): 16.1% | viability, T/C (second compound 10 µM, first compound 0.0316 µM): 17.2% | viability, T/C (second compound 10 µM, first compound 0.1 µM): 18.5% | viability, T/C (second compound 10 µM, first compound 0.316 µM): 16% | viability, T/C (second compound 10 µM, first compound 1 µM): 11.8% | viability, T/C (second compound 10 µM, first compound 3.16 µM): 8.84% | viability, T/C (second compound 10 µM, first compound 10 µM): 5.54%
